Laboratory results taken from US20100047227A1, “NOVEL ANTICANCER CATHEPSIN FORMULATIONS AND ANTICANCER AGENT FOR USE IN COMBINED ANTICANCER THERAPY” (priority 2006, published 2010).

Key:
[1] = system: human prostate cancer ALVA-41 cells; assay: survival rate of cells (Cell Counting Kit-8), ALVA-41 cells; type: cell-based; settings: ALVA-41 cells, 20 hours, neutral pH, 10-100 μg/ml
Procedure: The survival rate of cells was measured by Cell Counting Kit-8 in accordance with a manufacturer's manual. The method will be described briefly as follows. A 96-well (each 100 μl) plate was inoculated with cells (1×10^4 cells) and incubated for 24 hours, and the cells were incubated in a non-serum culture medium Opti-MEM together with a given concentration of each cathepsin purified from rat stomach (References #27 and #60-#62). Thereafter, the kit reagent (10 μl) was added to each well and the wells were incubated for another 1 hour. After incubation, each well was measured at the absorbance of 450 nm with a microplate reader.
In the figure, an indicating bar scale represents 50 μm. […] In the figure, an indicating bar scale represents 50 μm.
In this experiment, the survival rate of the ALVA-41 cells was measured by incubating the cells with cathepsin E of a given concentration in the presence or absence of pepstatin A (100 μM) at 37° C. and pH 7.4 for 20 hours. The data is represented as a percentage with respect to the value for non-treated cell group. The data were obtained as an average value±SD from the data obtained by four separate experiments. […] In this experiment, the HEK293 cells were incubated together with a given concentration of natural cathepsin E, wild-type recombinant and the active site mutant (D98A/D283A) at 37° C. and pH 7.4 for 20 hours. The survival rate of the cells was measured and represented as a percentage with respect to the value of the non-treated cell group. The data represents an average value±SD from the data obtained by four separate experiments. In the value, *p<0.001 is a corresponding value for the cells treated with the mutant. […] In this experiment, ALVA-41 cells were treated solely with cathepsin E of a given concentration in the same manner as for FIG. 2A and the culture supernatant was recovered, followed by centrifuging to remove the precipitate and transferring a portion ([…]) of the supernatant to a freshly prepared culture of ALVA-41 cells. Thereafter, the cells were incubated at 37° C. and pH 7.4 for 20 hours in the absence (black round mark) or presence (white round mark) of pepstatin A (100 μM) and measured for the survival rate of the cells. The cell survival rate is represented as a percentage with respect to the value of the cells treated with the culture supernatant of the ALVA-41 cells treated with physiological saline. The data is represented as an average value±SD from the data obtained by four separate experiments. […] The cathepsin E activity (on the upper panel) and the cytotoxic activity (on the lower panel) of each column fraction were determined using freshly prepared ALVA-41 cells and a cathepsin E-specific substrate. The cell survival rate of each fraction treated with the protein at a given final concentration is represented as a percentage with respect to the value of the cells treated with physiological saline and as an average value±SD from the data obtained by four separate experiments. The cathepsin E activity is represented as a percentage of the total activity in the culture supernatant, and the data is represented as an average±SD from the data obtained by three separate experiments.

TRAIL = assay: ELISA of TRAIL in culture supernatant of ALVA-41 cells; type: cell-based, human; settings: ALVA-41 cells treated with cathepsin E 100 μg/ml, 20 hours
Procedure: ALVA-41 cells (1×10^6 cells per a 6-cm dish) were incubated together with cathepsin E (100 μg/ml) in a non-serum culture medium Opti-MEM at 37° C. for 20 hours. The resulting culture supernatant was measured for amounts of TRAIL, FasL and TNF-α with ELSA kit in a manner as will be described briefly. A sample and a standard product (each 100 μl) were added to a microtiter plate immobilized with a monoclonal antibody to the corresponding member of the TNF family and incubated at room temperature for 2 hours. Then, the wells of the microtiter plate were washed four times with a washing buffer and 100 μl of biotin-conjugated monoclonal antibody was added to each wells of the plate, following by incubation at room temperature for 1 hour and washing the wells of the plate completely. Then, they were incubated together with 100 μl of streptoavidin-conjugated horseradish peroxidase at room temperature for 30 minutes and washed four times with a washing buffer. […] After an addition of a reaction terminating solution, the wells were measured at 450 nm with microreader.
In this experiment, the ALVA-41 cells were treated with cathepsin E (100 μg/ml) or physiological saline at 37° C. and pH 7.4 for 20 hours and measured for the amounts of TNF-α, FasL and TRAIL in the culture supernatant by ELSA. […] Apoptosis of the ALVA-41 cells was measured using the culture supernatant after immunoprecipitation. […]

cathepsin E
number of living cells [1]: decreases the number of survived carcinoma cells in a dose-dependent fashion
TRAIL in culture supernatant (TRAIL): apparently secreted
